Patent US20100063139A1, “USE IN A COSMETIC COMPOSITION OF LIPOCHROMAN-6 TO ENHANCE THE RADIANCE OF THE COMPLEXION OF THE SKIN, ESPECIALLY THE SKIN OF THE FACE” (LVMH RECHERCHE, priority 2008, published 2010)
Several values for one entry are separate records, joined by “and”; a condition that tells them apart may be missing. Equal values may be shown once.

Key:
Assay type in all cases: cell-based
gene MsrB (msrb) = assay: Quantitative RT-PCR (RT-Q-PCR) of msrb gene expression in normal human epidermal keratinocytes; settings: 24 h, NHK; for % Control (msrb/G3PDH): control = 100; for Mb Cycles (msrb): triplicate PCR cycle numbers
Procedure: (§1) The effect of lipochroman-6 on the basal expression of genes coding for the proteins MsrA and MsrB is evaluated by the method of quantitative RT-PCR (real-time PCR; RT-Q-PCR).
(§2) The model selected is that of normal human epidermal keratinocytes (NHK) cultivated in vitro.
(§3) Type: normal human epidermal keratinocytes (NHK)
(§4) Test medium: SFM medium without EGF and without PE (SFM-PE-EGF)
(§5) Lipochroman-6: stock solution at 10 mg/ml in ethanol, diluted in test medium at concentrations of 0.01 mg/ml and 0.005 mg/ml.
(§6) The keratinocytes are seeded and pre-cultured for 24 hours in complete SFM culture medium (24-well plates) and then placed in SFM-PE-EGF medium.
(§7) At confluence, the cells are treated or not (control) with the test product and are cultured for 24 h at 37° C. and 5% CO2. Each treatment is carried out in triplicate. The culture supernatants are then harvested and the cell layers are rinsed with PBS solution (Invitrogen), and then 300 μl of tri-reagent (Sigma) are added. The plates are subsequently frozen at −80° C.
(§8) The expression of the genes msra and msrb is evaluated by RT-Q-PCR on the basis of the messenger RNA (mRNA) extracted from the cell layers of each treatment. For each treatment, the three samples are combined into one prior to the extraction of the RNA.
(§9) The main steps of the protocol are as follows: • Extraction of the total RNA using tri-reagent, according to the protocol of the supplier. • Removal of traces of potentially contaminating DNA by treatment with the DNA-free system (Ambion). • Implementation of the reverse transcription reaction in the presence of the primer oligo(dT) and the enzyme Superscript II (Gibco).
(§10) The PCR reactions are carried out with the aid of the following primers: […]
(§11) The PCR (polymerase chain reaction) reactions are carried out by quantitative PCR with the Light Cycler system (Roche Molecular Systems Inc.) according to the procedures recommended by the supplier. To perform correctly, this analytical system requires prior development of the conditions of analysis of the different primers. This system is formed of two main components: an optimized thermocycler, which allows extremely rapid heat transfers, and a fluorimeter, which continuously measures the fluorescence intensity incorporated in the DNA (detection at 521 nm). The reaction mixture (10 μl final) for each sample is as follows: • 2.5 μl of cDNA diluted to 1/10th • primers of the different markers used • reaction mixture (Roche) containing the enzyme taq DNA polymerase, the marker SYBR Green I (a fluorophore which is integrated into the double-stranded DNA in the course of the elongation step) and MgCl2.
(§12) The incorporation of fluorescence into the amplified DNA is measured continuously during the PCR cycles. […] The number of cycles is determined on the basis of the “exit” points of the fluorescence curves. For a given marker analysed, the later the exit of a sample (high number of cycles) the lower the initial number of copies of the mRNA. The relative expression (RE) value is expressed in arbitrary units (AU) in accordance with the following formula: (½^number of cycles)×10^6.

[1] = system: methionine sulphoxide reductase (Msr); assay: Msr activity in protein extracts of treated human keratinocytes (N-acetyl-(3H)-methionine-R,S sulphoxide substrate); settings: dose of 0.05%; human keratinocytes in culture, 24 h treatment
Procedure: The keratinocytes are obtained from grafts of skin originating from abdomens of healthy donors aged 47 years.
Lipochroman-6 powder (supplier: Lipotec) is first diluted in 20 μl of absolute ethanol. Then a stock solution at 10 mg/ml in the K-SFM-S medium is prepared.
An intermediate solution at 1 mg/ml (dilution 20 μl in 200 μl of K-SFM-S medium) is prepared from the lipochroman-6 stock solution.
The dilutions are carried out in the K-SFM-S medium on the basis of the intermediate solution at 1 mg/ml.
The medium is drawn off from the cell flasks (passage P3) and replaced with the medium containing the different dilutions of actives. After 24 hours of treatment, the cells are washed with PBS buffer and then treated with trypsin. The cells are finally counted with a NucleoCounter from Chemometec (Bioblock). […]
The Msr activity is measured on the basis of the protein extracts by using the substrate N-acetyl-(^3H)-methionine-(R, S) sulphoxide in a reaction mixture of 30 μl containing Tris-HCl pH 7.5, 25 mM, MgCl2 10 mM, DTT 15 mM, at 37° C. […]
The required quantity of proteins is withdrawn and made up with water to a reaction volume of 20.8 μl in a 2 ml Eppendorf tube stored in ice. […]
Following centrifugation at 15 000 g for 5 minutes at ambient temperature, 1 ml of the upper, organic phase is withdrawn and is counted in a scintillation vial and admixed with 2 ml of Sigma Fluor scintillant. […]

[2] = system: normal human keratinocytes (NHK); assay: Immunostaining (DNPH/anti-DNP) of oxidized proteins in normal human keratinocytes, confocal image analysis; settings: for DNP marking/No. of cells / DNP marking/surface area measured / Surface area DNP marking: 48 h; for Proportion of oxidized proteins/cells, KHN 0002: donor KHN 0002; for Proportion of oxidized proteins/cells, KHN 9726: donor KHN 9726; for Proportion of oxidized proteins/cells, Mean: mean of two donors
Procedure: Normal human keratinocytes (NHK) isolated from harvesting of human skin carried out on two different donors (labelled KHN002 and KHN 9726 hereinafter) are cultured in T75 flasks in complete KSFM medium (KSFMc) (Invitrogen GIBCO) at 37° C. and 5% CO2 and are seeded at 20 000 cells per well in 8-well Lab-Tek II culture systems (Nalge Nunc International).
After 48 h of culture, the cells are treated with the treatment solutions (see below).
A 0.004% weight/volume lipochroman-6 solution is prepared (solution A).
This is done by dissolving 20 mg of lipochroman-6 powder (supplier: Lipotec) in 2 ml of ethanol (solution at 10 mg/ml). This solution is diluted (40 μl of the stock solution in 10 ml of KSFm medium) to give solution A.
The treatment solutions are prepared by diluting solution A prepared above in the KSFMc medium, to give the correct percentage of lipochroman-6.
Treatments carried out on 3 wells per cell type: • control: KSFMc • solvent control: 0.1% solution of ethanol in KSFMc medium • 0.001% lipochroman • 0.002% lipochroman
After 48 hours of treatment, the KSFMc is drawn off. The cells are rinsed with phosphate buffer (PBS) (PBS tablets, Invitrogen GIBCO), then fixed with formalin (formalin solution 10% neutral buffered, Sigma) for 10 minutes at ambient temperature. After rinsing with PBS, the culture chambers are filled with 0.1% triton solution (Triton X-100, Sigma) for 10 minutes, then rinsed with PBS.
The subsequently disassembled culture chambers and the slides are immersed in a solution of 2,4-dinitrophenylhydrazine (300 mg of DNPH (Fluka)) in an ethanol/sulphuric acid (98.5 ml/1.5 ml) mixture for 30 minutes.
The dinitrophenyl (DNP) groups fixed to the oxidized proteins are recognized by a primary anti-DNP antibody.
For this purpose, in a first step, the slides are covered with a solution of primary antibody (monoclonal mouse anti-DNP antibody, Sigma), diluted to 1/500th in a 1% BSA/PBS solution, and are incubated for 60 minutes in an oven at ambient temperature and then rinsed with a 0.1% Tween-PBS solution (Tween20, Merck). In a second step, the cells are covered with a secondary antibody solution (Alexafluor 546 goat anti-mouse, Invitrogen) in a 1% BSA/PBS solution, and are incubated away from the light for 60 minutes. The slides are subsequently rinsed with PBS-Tween and then with PBS.
The photographs are made by confocal microscopy (Axioplan microscope from Zeiss and krypton-argon laser from BioRad) with the aid of the LaserSharp 2000 software (BioRad). For each condition, three photographs are made with the ×40 lens, according to the same acquisition parameters (gain, iris).
In practice, an excitation fluorescence at 546 nm is applied by the confocal laser to the cells. The fluorochrome Alexafluor 546, which represents the oxidized proteins, emits fluorescence at 573 nm, which is recovered by a specific filter and can be observed. The measured fluorescence is therefore directly proportional to the amount of oxidized proteins.
The photographs are analysed with the aid of the Leica QWin image analysis software. A program allows the DNPH staining to be quantified in order to evaluate the level of oxidized proteins and the number of cells.
The program detects the fluorescent staining of the oxidized proteins. A detection zone which is as representative as possible (number, size, cell density, intensity of marking) is delimited. The fluorescence of the oxidized proteins is measured in the delimited zone, and the cells in the same zone are numbered by counting of the cell nuclei (see FIGS. 2a, 2b, 2c, 2d and 2e).
The effect of lipochroman-6 on the oxidation of proteins is measured on the two types of normal human keratinocytes (NHK). This is done by estimating the surface area of staining of the oxidized proteins, the surface area of the measurement zone and the number of cells in the measurement surface area, using an image processing system.

gene MsrA (msra) = assay: Quantitative RT-PCR (RT-Q-PCR) of msra gene expression in normal human epidermal keratinocytes; settings: 24 h, NHK; for % Control (msra/G3PDH): control = 100; for Mb Cycles (msra): triplicate PCR cycle numbers
Procedure: as §1, §2, §3, §4, §5, §6, §7, §8, §9, §10, §11, §12

COc1cc2c(cc1O)CCC(C)(C)O2 [Lipochroman-6]
Mb/G3PDH (msrb/G3PDH) (gene MsrB (msrb); 0.005 mg/ml): 1.76 × 10^−2 | RE*Mb (AU) (msrb relative expression) (gene MsrB (msrb); 0.005 mg/ml): 3.516 × 10^−2 AU | % Control (msrb/G3PDH) (gene MsrB (msrb); 0.005 mg/ml): 127% | Mb Cycles (msrb) (gene MsrB (msrb); 0.005 mg/ml): 24.68 and 24.86 and 24.75 | Mb/G3PDH (msrb/G3PDH) (gene MsrB (msrb); 0.01 mg/ml): 2.05 × 10^−2 | RE*Mb (AU) (msrb relative expression) (gene MsrB (msrb); 0.01 mg/ml): 4.018 × 10^−2 AU | % Control (msrb/G3PDH) (gene MsrB (msrb); 0.01 mg/ml): 148% | Mb Cycles (msrb) (gene MsrB (msrb); 0.01 mg/ml): 24.62 and 24.60 and 24.49 | Increase of Msr activity [1]: 44% | DNP marking/No. of cells ([2]; 0.001% lipochroman): 82.1 B | DNP marking/surface area measured ([2]; 0.001% lipochroman): 28.7% D | Surface area DNP marking ([2]; 0.001% lipochroman): 3776 C | Proportion of oxidized proteins/cells, KHN 0002 ([2]; 0.001% lipochroman-6, 48 h): 76.3 | Proportion of oxidized proteins/cells, KHN 9726 ([2]; 0.001% lipochroman-6, 48 h): 88 | Proportion of oxidized proteins/cells, Mean ([2]; 0.001% lipochroman-6, 48 h): 82.1 | DNP marking/No. of cells ([2]; 0.002% lipochroman): 52.0 A | DNP marking/surface area measured ([2]; 0.002% lipochroman): 18.4% B | Surface area DNP marking ([2]; 0.002% lipochroman): 2415 B | Proportion of oxidized proteins/cells, KHN 0002 ([2]; 0.002% lipochroman-6, 48 h): 60.9 | Proportion of oxidized proteins/cells, KHN 9726 ([2]; 0.002% lipochroman-6, 48 h): 43 | Proportion of oxidized proteins/cells, Mean ([2]; 0.002% lipochroman-6, 48 h): 52 | Mb/G3PDH (msra/G3PDH) (gene MsrA (msra); 0.005 mg/ml): 4.14 × 10^−3 | RE*Mb (AU) (msra relative expression) (gene MsrA (msra); 0.005 mg/ml): 8.251 × 10^−3 AU | % Control (msra/G3PDH) (gene MsrA (msra); 0.005 mg/ml): 116% | Mb Cycles (msra) (gene MsrA (msra); 0.005 mg/ml): 26.84 and 26.91 and 26.81 | Mb/G3PDH (msra/G3PDH) (gene MsrA (msra); 0.01 mg/ml): 4.42 × 10^−3 | RE*Mb (AU) (msra relative expression) (gene MsrA (msra); 0.01 mg/ml): 8.66 × 10^−3 AU | % Control (msra/G3PDH) (gene MsrA (msra); 0.01 mg/ml): 124% | Mb Cycles (msra) (gene MsrA (msra); 0.01 mg/ml): 26.83 and 26.79 and 26.73
